Test [1] deals with AF9, AFF4, cyclin-T1 and H3K79me2. The test is described as follows: ChIP-qPCR, AF9, AFF4, cyclin-T1 and H3K79me2 at gene promoters of Myc and HoxA9. The test is classed as cell-based. The following applies: MV4;11 cells, 500 nM, 4 days. The method, then:
(§1) Chromatin immunoprecipitation (ChIP) followed by qPCR was used to further probe the activity of compound 1 in the gene promoters of Myc and HoxA9, two characteristic MLL1 target genes.
(§2) Upon treatment with a compound for 4 days, 10^7 MV4;11 cells were cross-linked with 1% formaldehyde at room temperature for 10 min, followed by the addition of 125 mM glycine. Cells were lysed with nuclear lysis buffer and sonicated to ~ 100–1000 bp fragments, which was incubated at 4 °C overnight with an antibody and IgG (C15410206, Diagenode). Protein A/G Magnetic Beads (10 µL, Novus Biologicals) were added and incubated for 2 h. The beads were washed 3 × with RIPA buffer and 2 × with TE buffer. DNA on the beads was eluted for 2 h at 68 °C in 100 μL of an elution buffer (20 mM Tris pH 7.5, 5 mM EDTA, 50 mM NaCl, 1% SDS, 50 μg/mL proteinase K) (2 ×), and purified using a ChIP DNA Clean & Concentrator kit (Novus Biologicals). qPCR was done using the method described above.

The next test has as its system Molm-13 cells. The test is described as follows: Annexin V apoptosis assay in Molm-13 cells. The test is classed as cell-based. The settings on record: 7 days. Here is the method:
Treatment of Molm-13 cells with compound 1 for 7 days at 1 and 3 µM caused significant apoptosis of 22.7% and 67.6%, respectively (Fig. 6c and Additional file 1: Fig. S6).
For Annexin V apoptosis assay, 10^5 cells/mL were incubated with increasing concentrations of a compound for 7 days. Apoptosis was determined using the FITC Annexin V Apoptosis Detection Kit I (BD Bioscience) using the manufacturer’s protocol. For other FACS assays, cells were labeled with fluorochrome-conjugated monoclonal antibodies against human CD14 and CD11b (BD Biosciences) according to the manufacturer’s recommendation. Cells were analyzed using a FACS Calibur (BD Biosciences/Applied Biosystems), and data were processed using the program Flowjo (version7.6.5).

Test [2] addresses T1, ENL (Homo sapiens, UniProt Q03111).
T1 sequence (Q03111 1-559): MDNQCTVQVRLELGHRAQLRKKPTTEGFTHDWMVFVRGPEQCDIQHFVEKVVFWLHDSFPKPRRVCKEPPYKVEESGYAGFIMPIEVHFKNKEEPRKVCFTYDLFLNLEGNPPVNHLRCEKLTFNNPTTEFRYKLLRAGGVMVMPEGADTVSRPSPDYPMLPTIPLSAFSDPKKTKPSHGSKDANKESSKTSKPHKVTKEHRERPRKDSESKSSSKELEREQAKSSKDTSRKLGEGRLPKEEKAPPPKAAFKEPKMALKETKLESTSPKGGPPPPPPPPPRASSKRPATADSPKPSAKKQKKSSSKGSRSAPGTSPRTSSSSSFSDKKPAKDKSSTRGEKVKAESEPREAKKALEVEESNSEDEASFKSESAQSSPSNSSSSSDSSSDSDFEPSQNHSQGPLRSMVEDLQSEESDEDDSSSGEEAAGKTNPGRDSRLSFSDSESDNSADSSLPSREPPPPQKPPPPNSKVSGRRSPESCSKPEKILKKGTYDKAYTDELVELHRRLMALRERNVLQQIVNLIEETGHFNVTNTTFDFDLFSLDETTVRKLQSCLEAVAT
The test is described as follows: ENL degradation in Molm-13 cells (Western blot). The test is classed as cell-based. More on the design: endogenous in cells. The settings on record: MOLM-13, Molm-13 cells, 24 h. Here is the method: In addition, compound 1 efficiently degraded ENL in another MLL1-r leukemia Molm-13 cells (with MLL1-AF9) with DC50 of 47 nM and Dmax of ~ 88% (Fig. 3e). Moreover, significant ENL degradation can be detected in 2 h and depletion occurred within 24 h (Fig. 3f).
(§3) 3 × 10^6 cells/well were treated with increasing concentrations of a compound for 1 day, and whole proteins were extracted. Equal amounts of proteins were separated on SDS-PAGE and transferred to PVDF membranes. The blots were probed with primary antibodies, followed by anti-rabbit IgG (Thermo Scientific) secondary antibodies. The primary antibodies against ENL (Cell signaling #14893), AF9 (Novusbio #NB100-1565), DOT1L (Cell signaling #77087), AFF4 (Abcam #ab103586), Cyclin T1 (Cell signaling #81464), H3K79me2 (Cell signaling #5427), H3K79me1 (Cell signaling #9398), Histone H3 (Cell signaling #4499), FLAG (Sigma-Aldrich #F1804), β-Actin (Cell signaling #4970) were used in this study.
(In general: Immunoblotting shows a protein as a band on a membrane.)

Another test has as its system RPMI-8226 cells. The test is described as follows: Antiproliferation assay (XTT), RPMI-8226. The following applies: Homo sapiens, RPMI-8226, 168 h, read-out: Antiproliferative activity, EC50, RPMI-8226. On the technique in general: Tetrazolium dyes change colour on reduction, which living cells bring about.
Test [3] has as its target T1, ENL. Nature of the test: ENL degradation in MV4;11 cells (Western blot). The format is cell-based. More on the design: endogenous in cells; host or cells: MV4;11. The settings on record: 24 h. Here is the method:
We next tested whether these compounds degrade ENL and AF9 in MV4;11 leukemia cells with the MLL1-AF4 oncogene. Upon compound treatment for 24 h, the cells were washed, lysed, and the lysates subjected to SDS-PAGE (sodium dodecyl sulfate–polyacrylamide gel electrophoresis) followed by detection with Western blot.
as §3

The target in test [4] is T1, ENL. The test is described as follows: ENL in nucleus and cytoplasm of MV4;11 cells (Western blot). The test is classed as cell-based. Further details: endogenous in cells; host or cells: MV4;11. The settings on record: 4 days. The method, then: Upon treatment of MV4;11 cells with these compounds for 4 days, cytoplasmic and nuclear proteins were separated and subjected to SDS-PAGE/Western blot.
3 × 10^6 cells/well were treated with increasing concentrations of a compound for 1 day, and whole proteins were extracted. Equal amounts of proteins were separated on SDS-PAGE and transferred to PVDF membranes. The blots were probed with primary antibodies, followed by anti-rabbit IgG (Thermo Scientific) secondary antibodies.

The target in test [5] is T1, ENL. The test is described as follows: ChIP-qPCR, ENL at gene promoters of Myc and HoxA9. The test is classed as cell-based. Further details: endogenous in cells; host or cells: MV4;11. The settings on record: MV4;11 cells, 500 nM, 4 days. Here is the method:
as §1, §2
In general terms: In qPCR the cycle at which signal appears reflects the starting amount.

Another test concerns the target T2, ENL YEATS (Homo sapiens, UniProt Q03111).
T2 sequence (Q03111 1-138): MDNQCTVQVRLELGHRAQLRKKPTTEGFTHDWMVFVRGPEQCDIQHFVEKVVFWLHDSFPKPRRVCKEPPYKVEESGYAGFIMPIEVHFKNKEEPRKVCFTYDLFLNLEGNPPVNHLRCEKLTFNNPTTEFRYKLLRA

Where only a bound is given, the exact number is not on record here.

From the text for ENL YEATS: cDNA for human ENL YEATS domain (1–138) was synthesized (by Genscript) and cloned into pET-28a vector.
AlphaScreen binding assay was developed using Perkin-Elmer AlphaScreen Histidine (Nickel Chelate) Detection Kit, following a reported protocol [39]. Data were imported into Prism (version 5.0), and IC50 values from 3 independent experiments with standard deviation were obtained by using a standard dose–response curve fitting.
Method for RPMI-8226 cells: Proliferation inhibition assays for suspension blood cancer cells were performed using an XTT assay kit (Biotium), following our previous methods [22]. EC50 values were determined using Prism 5 and from at least three independent experiments.

For the compound `C[C@H]1CCCN1Cc1nc2cc(NC(=O)c3ccc4c(cnn4CCCCCCCCNc4cccc5c4C(=O)N(C4CCC(=O)NC4=O)C5=O)c3)ccc2[nH]1` (stereo partly shown) [Compound 1], in test [1], the “AF9, AFF4, cyclin-T1 and H3K79me2 at gene promoters of Myc and HoxA9” value is “did not significantly lower down”. Moreover, the Apoptosis is at most 5% in the test on Molm-13 cells (0.5 μM), 22.7% in the test with Molm-13 cells (1 µM) and 67.6% with Molm-13 cells (3 µM). The Dmax on ENL [2] is 88%; on ENL [3] (MV4-11, MV4;11 cells, read-out: Dmax (maximal degradation) of ENL) it was about 95%. Further, the EC50 in the test with RPMI-8226 cells was determined as 1200 ± 230 nM. Moreover, the “Concentration of maximal ENL-degrading activity (hook effect above)” value on ENL [3] (MV4;11 cells) is ~ 500 nM. Besides, the DC50 at ENL [3] (MV4;11 cells, read-out: DC50 (concentration at which a protein is reduced by 50%) of ENL) worked out at 37 nM. Besides, the “ENL level in the cytoplasmic extract” value at ENL [4] was “significantly reduced”. Moreover, the “ENL level in the nucleus” value on ENL [4] (compound 1 at 500 nM) was “almost depleted”. For the same compound, the “ENL levels at gene promoters of Myc and HoxA9” value on ENL [5] is listed as “significantly reduced”. Moreover, the IC50 against ENL YEATS came to 170 nM.

In general, Dmax refers to the largest share of the target that was removed. In general, EC50 refers to the concentration at which the effect is half-maximal. Usually IC50 stands for the concentration that gives 50% inhibition. Low values mean inhibition by little substance, high ones a need for much substance.

Values taken from paper PMC8994274, “A proteolysis-targeting chimera molecule selectively degrades ENL and inhibits malignant gene expression and tumor growth” (Journal of Hematology & Oncology, 2022).
